Reference: patent publication US9833497B2, “Human originated EGF domain proteins and use of the same” (CHENGDU SOURCEBIO LIMITED-LIABILITY COMPANY, priority 2013, dated 2017)

Columns and labels:
Type in all cases: cell-based
E. coli DH5α = test: Antibacterial activity: MIC and growth curve against E. coli DH5α in 96-well plate; details: minimal inhibitory concentration against E. coli DH5α; 96-well plate, 5×10^5 CFU/mL, 37° C., judged after 8 h
Method in brief: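 MIC taken as lowest protein level with no bacterial growth, tracked by A600 every 30 min during 37 °C, 175 rpm culture. Two-fold protein series 50-12.5 μg/mL final, triplicate wells, against 5×10^5 CFU/mL of LB-washed mid-log cells.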

E. coli BL21 = test: MIC against Gram-negative bacteria: E. coli BL21; details: 96-well plate, 5×10^5 CFU/mL, 37° C., 10 h
Method in brief: (§1)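 Purified recombinant human EGF domain proteins are tested by broth dilution in LB against a 5×10^5 CFU/mL inoculum, with two-fold serial dilutions run in triplicate. Plates are incubated at 37° C with shaking, and the MIC is read as the lowest protein concentration without growth.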

Pseudomonas aeruginosa = test: MIC against Gram-negative bacteria: Pseudomonas aeruginosa; details: 96-well plate, 5×10^5 CFU/mL, 37° C., 10 h
Method in brief: as §1

Klebsiella pneumonia = test: MIC against Gram-negative bacteria: Klebsiella pneumonia; details: 96-well plate, 5×10^5 CFU/mL, 37° C., 10 h
Method in brief: as §1

Enterobacter cloacae = test: MIC against Gram-negative bacteria: Enterobacter cloacae; details: 96-well plate, 5×10^5 CFU/mL, 37° C., 10 h
Method in brief: as §1

Aeromonas hydrophila = test: MIC against Gram-negative bacteria: Aeromonas hydrophila; details: 96-well plate, 5×10^5 CFU/mL, 37° C., 10 h
Method in brief: as §1

Citrobacter diversus = test: MIC against Gram-negative bacteria: Citrobacter diversus; details: 96-well plate, 5×10^5 CFU/mL, 37° C., 10 h
Method in brief: as §1

Moraxella catarrhalis = test: MIC against Gram-negative bacteria: Moraxella catarrhalis; details: 96-well plate, 5×10^5 CFU/mL, 37° C., 10 h
Method in brief: as §1

Proteus mirabilis = test: MIC against Gram-negative bacteria: Proteus mirabilis; details: 96-well plate, 5×10^5 CFU/mL, 37° C., 10 h
Method in brief: as §1

Proteus vulgaris = test: MIC against Gram-negative bacteria: Proteus vulgaris; details: 96-well plate, 5×10^5 CFU/mL, 37° C., 10 h
Method in brief: as §1

Serratia marcescens = test: MIC against Gram-negative bacteria: Serratia marcescens; details: 96-well plate, 5×10^5 CFU/mL, 37° C., 10 h
Method in brief: as §1

## PRT518 (CACPLNIPSNNFSPTCHLDRSLGLICDGCPVGYTGPRCERCAEGYFGQPSVPGGSCQP; listed as Homo sapiens)
E. coli DH5α
  MIC: 50 µg/mL
E. coli BL21
  MIC against E. coli BL21: 25 µg/mL
Pseudomonas aeruginosa
  MIC against P. aeruginosa: 12.5 µg/mL
Klebsiella pneumonia
  MIC against K. pneumonia: 25 µg/mL
Enterobacter cloacae
  MIC against E. cloacae: 50 µg/mL
Aeromonas hydrophila
  MIC against A. hydrophila: 25 µg/mL
Citrobacter diversus
  MIC against C. diversus: 12.5 µg/mL
Moraxella catarrhalis
  MIC against M. catarrhalis: 25 µg/mL
Proteus mirabilis
  MIC against P. mirabilis: 12.5 µg/mL
Proteus vulgaris
  MIC against P. vulgaris: 25 µg/mL
Serratia marcescens
  MIC against S. marcescens: 12.5 µg/mL

## PRT519 (CQCNDNLDFSIPGSCDSLSGSCLICKPGTTGRYCELCADGYFGDAVDAKNCQP; listed as Homo sapiens)
E. coli DH5α
  MIC: 25 µg/mL
E. coli BL21
  MIC against E. coli BL21: 12.5 µg/mL
Pseudomonas aeruginosa
  MIC against P. aeruginosa: 12.5 µg/mL
Klebsiella pneumonia
  MIC against K. pneumonia: 25 µg/mL
Enterobacter cloacae
  MIC against E. cloacae: 12.5 µg/mL
Aeromonas hydrophila
  MIC against A. hydrophila: 25 µg/mL
Citrobacter diversus
  MIC against C. diversus: 12.5 µg/mL
Moraxella catarrhalis
  MIC against M. catarrhalis: 25 µg/mL
Proteus mirabilis
  MIC against P. mirabilis: 12.5 µg/mL
Proteus vulgaris
  MIC against P. vulgaris: 25 µg/mL
Serratia marcescens
  MIC against S. marcescens: 12.5 µg/mL

## PRT520 (CRCNAGGSFSEVCHSQTGQCECRANVQGQRCDKCKAGTFGLQSARGCVP; listed as Homo sapiens)
E. coli DH5α
  MIC: 25 µg/mL
E. coli BL21
  MIC against E. coli BL21: 12.5 µg/mL
Pseudomonas aeruginosa
  MIC against P. aeruginosa: 25 µg/mL
Klebsiella pneumonia
  MIC against K. pneumonia: 12.5 µg/mL
Enterobacter cloacae
  MIC against E. cloacae: 25 µg/mL
Aeromonas hydrophila
  MIC against A. hydrophila: 12.5 µg/mL
Citrobacter diversus
  MIC against C. diversus: 25 µg/mL
Moraxella catarrhalis
  MIC against M. catarrhalis: 50 µg/mL
Proteus mirabilis
  MIC against P. mirabilis: 25 µg/mL
Proteus vulgaris
  MIC against P. vulgaris: 12.5 µg/mL
Serratia marcescens
  MIC against S. marcescens: 25 µg/mL

## PRT521 (CNCNSFGSKSFDCEESGQCWCQPGVTGKKCDRCAHGYFNFQEGGCTA; listed as Homo sapiens)
E. coli DH5α
  MIC: 50 µg/mL
E. coli BL21
  MIC against E. coli BL21: 25 µg/mL
Pseudomonas aeruginosa
  MIC against P. aeruginosa: 12.5 µg/mL
Klebsiella pneumonia
  MIC against K. pneumonia: 25 µg/mL
Enterobacter cloacae
  MIC against E. cloacae: 50 µg/mL
Aeromonas hydrophila
  MIC against A. hydrophila: 25 µg/mL
Citrobacter diversus
  MIC against C. diversus: 12.5 µg/mL
Moraxella catarrhalis
  MIC against M. catarrhalis: 25 µg/mL
Proteus mirabilis
  MIC against P. mirabilis: 50 µg/mL
Proteus vulgaris
  MIC against P. vulgaris: 25 µg/mL
Serratia marcescens
  MIC against S. marcescens: 12.5 µg/mL

## PRT522 (CVCNGHAEVCNINNPEKLFRCECQHHTCGETCDRCCTGYNQRRWRPAAWEQSHECEA; listed as Homo sapiens)
E. coli DH5α
  MIC: 25 µg/mL
E. coli BL21
  MIC against E. coli BL21: 50 µg/mL
Pseudomonas aeruginosa
  MIC against P. aeruginosa: 25 µg/mL
Klebsiella pneumonia
  MIC against K. pneumonia: 12.5 µg/mL
Enterobacter cloacae
  MIC against E. cloacae: 25 µg/mL
Aeromonas hydrophila
  MIC against A. hydrophila: 50 µg/mL
Citrobacter diversus
  MIC against C. diversus: 25 µg/mL
Moraxella catarrhalis
  MIC against M. catarrhalis: 12.5 µg/mL
Proteus mirabilis
  MIC against P. mirabilis: 25 µg/mL
Proteus vulgaris
  MIC against P. vulgaris: 50 µg/mL
Serratia marcescens
  MIC against S. marcescens: 25 µg/mL

## PRT523 (CSCGRRLCEEMTGQCRCPPRTVRPQCEVCETHSFSFHPMAGCEG; listed as Homo sapiens)
E. coli DH5α
  MIC: 12.5 µg/mL
E. coli BL21
  MIC against E. coli BL21: 25 µg/mL
Pseudomonas aeruginosa
  MIC against P. aeruginosa: 50 µg/mL
Klebsiella pneumonia
  MIC against K. pneumonia: 25 µg/mL
Enterobacter cloacae
  MIC against E. cloacae: 12.5 µg/mL
Aeromonas hydrophila
  MIC against A. hydrophila: 25 µg/mL
Citrobacter diversus
  MIC against C. diversus: 50 µg/mL
Moraxella catarrhalis
  MIC against M. catarrhalis: 12.5 µg/mL
Proteus mirabilis
  MIC against P. mirabilis: 50 µg/mL
Proteus vulgaris
  MIC against P. vulgaris: 12.5 µg/mL
Serratia marcescens
  MIC against S. marcescens: 12.5 µg/mL

## PRT524 (CNCSRRGTIEAAMPECDRDSGQCRCKPRITGRQCDRCASGFYRFPECVP; listed as Homo sapiens)
E. coli DH5α
  MIC: 12.5 µg/mL
E. coli BL21
  MIC against E. coli BL21: 12.5 µg/mL
Pseudomonas aeruginosa
  MIC against P. aeruginosa: 12.5 µg/mL
Klebsiella pneumonia
  MIC against K. pneumonia: 25 µg/mL
Enterobacter cloacae
  MIC against E. cloacae: 12.5 µg/mL
Aeromonas hydrophila
  MIC against A. hydrophila: 25 µg/mL
Citrobacter diversus
  MIC against C. diversus: 100 µg/mL
Moraxella catarrhalis
  MIC against M. catarrhalis: 25 µg/mL
Proteus mirabilis
  MIC against P. mirabilis: 12.5 µg/mL
Proteus vulgaris
  MIC against P. vulgaris: 25 µg/mL
Serratia marcescens
  MIC against S. marcescens: 50 µg/mL

## PRT525 (CNCNRDGTEPGVCDPGTGACLCKENVEGTECNVCREGSFHLDPANLKGCTS; listed as Homo sapiens)
E. coli DH5α
  MIC: 25 µg/mL
E. coli BL21
  MIC against E. coli BL21: 12.5 µg/mL
Pseudomonas aeruginosa
  MIC against P. aeruginosa: 25 µg/mL
Klebsiella pneumonia
  MIC against K. pneumonia: 50 µg/mL
Enterobacter cloacae
  MIC against E. cloacae: 25 µg/mL
Aeromonas hydrophila
  MIC against A. hydrophila: 12.5 µg/mL
Citrobacter diversus
  MIC against C. diversus: 25 µg/mL
Moraxella catarrhalis
  MIC against M. catarrhalis: 50 µg/mL
Proteus mirabilis
  MIC against P. mirabilis: 25 µg/mL
Proteus vulgaris
  MIC against P. vulgaris: 12.5 µg/mL
Serratia marcescens
  MIC against S. marcescens: 25 µg/mL

## PRT527 (CPCPHTNSFATGCVVNGGDVRCSCKAGYTGTQCERCAPGYFGNPQKFGGSCQP; listed as Homo sapiens)
E. coli DH5α
  MIC: 50 µg/mL
E. coli BL21
  MIC against E. coli BL21: 12.5 µg/mL
Pseudomonas aeruginosa
  MIC against P. aeruginosa: 50 µg/mL
Klebsiella pneumonia
  MIC against K. pneumonia: 12.5 µg/mL
Enterobacter cloacae
  MIC against E. cloacae: 25 µg/mL
Aeromonas hydrophila
  MIC against A. hydrophila: 50 µg/mL
Citrobacter diversus
  MIC against C. diversus: 25 µg/mL
Moraxella catarrhalis
  MIC against M. catarrhalis: 12.5 µg/mL
Proteus mirabilis
  MIC against P. mirabilis: 25 µg/mL
Proteus vulgaris
  MIC against P. vulgaris: 50 µg/mL
Serratia marcescens
  MIC against S. marcescens: 25 µg/mL

## PRT528 (CSCNSNGQLGSCHPLTGDCINQEPKDSSPAEECDD; listed as Homo sapiens)
E. coli DH5α
  MIC: 12.5 µg/mL
E. coli BL21
  MIC against E. coli BL21: 25 µg/mL
Pseudomonas aeruginosa
  MIC against P. aeruginosa: 50 µg/mL
Klebsiella pneumonia
  MIC against K. pneumonia: 25 µg/mL
Enterobacter cloacae
  MIC against E. cloacae: 12.5 µg/mL
Aeromonas hydrophila
  MIC against A. hydrophila: 25 µg/mL
Citrobacter diversus
  MIC against C. diversus: 50 µg/mL
Moraxella catarrhalis
  MIC against M. catarrhalis: 25 µg/mL
Proteus mirabilis
  MIC against P. mirabilis: 12.5 µg/mL
Proteus vulgaris
  MIC against P. vulgaris: 25 µg/mL
Serratia marcescens
  MIC against S. marcescens: 50 µg/mL

## PRT530 (CSCDPEHADGCEQGSGRCHCKPNFHGDNCEKCAIGYYNFPFCLR; listed as Homo sapiens)
E. coli DH5α
  MIC: 50 µg/mL
E. coli BL21
  MIC against E. coli BL21: 12.5 µg/mL
Pseudomonas aeruginosa
  MIC against P. aeruginosa: 25 µg/mL
Klebsiella pneumonia
  MIC against K. pneumonia: 50 µg/mL
Enterobacter cloacae
  MIC against E. cloacae: 25 µg/mL
Aeromonas hydrophila
  MIC against A. hydrophila: 12.5 µg/mL
Citrobacter diversus
  MIC against C. diversus: 25 µg/mL
Moraxella catarrhalis
  MIC against M. catarrhalis: 50 µg/mL
Proteus mirabilis
  MIC against P. mirabilis: 25 µg/mL
Proteus vulgaris
  MIC against P. vulgaris: 12.5 µg/mL
Serratia marcescens
  MIC against S. marcescens: 25 µg/mL

## PRT531 (CDCNLEGVLPEICDAHGRCLCRPGVEGPRCDTCRSGFYSFPICQA; listed as Homo sapiens)
E. coli DH5α
  MIC: 50 µg/mL
E. coli BL21
  MIC against E. coli BL21: 25 µg/mL
Pseudomonas aeruginosa
  MIC against P. aeruginosa: 12.5 µg/mL
Klebsiella pneumonia
  MIC against K. pneumonia: 25 µg/mL
Enterobacter cloacae
  MIC against E. cloacae: 50 µg/mL
Aeromonas hydrophila
  MIC against A. hydrophila: 12.5 µg/mL
Citrobacter diversus
  MIC against C. diversus: 50 µg/mL
Moraxella catarrhalis
  MIC against M. catarrhalis: 12.5 µg/mL
Proteus mirabilis
  MIC against P. mirabilis: 50 µg/mL
Proteus vulgaris
  MIC against P. vulgaris: 12.5 µg/mL
Serratia marcescens
  MIC against S. marcescens: 50 µg/mL

## PRT532 (CWCSALGSYQMPCSSVTGQCECRPGVTGQRCDRCLSGAYDFPHCQGSSSACDP; listed as Homo sapiens)
E. coli DH5α
  MIC: 12.5 µg/mL
E. coli BL21
  MIC against E. coli BL21: 50 µg/mL
Pseudomonas aeruginosa
  MIC against P. aeruginosa: 12.5 µg/mL
Klebsiella pneumonia
  MIC against K. pneumonia: 12.5 µg/mL
Enterobacter cloacae
  MIC against E. cloacae: 12.5 µg/mL
Aeromonas hydrophila
  MIC against A. hydrophila: 12.5 µg/mL
Citrobacter diversus
  MIC against C. diversus: 12.5 µg/mL
Moraxella catarrhalis
  MIC against M. catarrhalis: 50 µg/mL
Proteus mirabilis
  MIC against P. mirabilis: 12.5 µg/mL
Proteus vulgaris
  MIC against P. vulgaris: 50 µg/mL
Serratia marcescens
  MIC against S. marcescens: 12.5 µg/mL
